In patent US8501752B2, “Methods for treating cancer and other pathological proliferating disorders by inhibiting mitosis using pyrrolo[2,3-d]pyrimidines” (Duquesne University of the Holy Ghost, priority 2005, dated 2013):
“Also recorded” adds a separate entry of the source. Like-named read-outs stand apart in the source and are kept apart here.

Columns and labels:
[1] = system: HL-60(TB); assay: NCI IVCLSP growth inhibition (SRB), HL-60(TB); type: cell-based, human; details: 48 h drug incubation
Procedure: (§1) FIG. 1 presents nine compounds that were tested using the National Cancer Institute (NCI) 60 human tumor cell lines. The cells lines, which represent leukemia, melanoma, and cancers of the lung, colon, brain, ovary, breast, prostate, and kidney, are listed in Table 1.
(§2) Compounds 1-9 were tested according to the NCI Developmental Therapeutics Program (DTP) In Vitro Cell Line Screening Project (IVCLSP). […] Methodology for testing under the IVCLSP is as follows: The human tumor cell lines of the cancer screening panel are grown in RPMI 1640 medium containing 5% fetal bovine serum and 2 mM L-glutamine. […]
(§3) Following drug addition, the plates are incubated for an additional 48 h at 37° C., 5% CO2, 95% air, and 100% relative humidity. […] Bound stain is subsequently solubilized with 10 mM trizma base, and the absorbance is read on an automated plate reader at a wavelength of 515 nm. […] Using the seven absorbance measurements [time zero, (Tz), control growth, (C), and test growth in the presence of drug at the five concentration levels (Ti)], the percentage growth is calculated at each of the drug concentrations levels. Percentage growth inhibition is calculated as: [(Ti−Tz)/(C−Tz)]×100 for concentrations for which Ti>/=Tz [(Ti−Tz)/Tz]×100 for concentrations for which Ti<Tz.
(§4) Three dose response parameters are calculated for each experimental agent. […]

[2] = system: IGROVI; assay: NCI IVCLSP growth inhibition (SRB), IGROVI; type: cell-based, human; details: 48 h drug incubation
Procedure: as §1, §2, §3, §4

[3] = system: HL-60 human promyelocytic leukemia cells; assay: Flow cytometric cell cycle phase distribution; type: cell-based; details: 24 hours treatment
Procedure: Flow cytometric analyses were used to assess the effects of Compound 1 and various antimicrotubule drugs on the cell cycle phase distributions of HL-60 human promyelocytic leukemia cells. The percentage of cells in the G2/M phases were increased approximately 2-fold by treatment of the cells for 24 hours with either TAXOL (paclitaxel), vinblastine, colchicine, or Compound 1.

[4] = system: UACC-62; assay: NCI IVCLSP growth inhibition (SRB), UACC-62; type: cell-based, human; details: 48 h drug incubation
Procedure: as §1, §2, §3, §4

[5] = system: T24 human bladder carcinoma cells; assay: Cytotoxicity, T24 cells; type: cell-based; details: mean ± SEM for 3 experiments
[6] = system: SR; assay: NCI IVCLSP growth inhibition (SRB), SR; type: cell-based, human; details: 48 h drug incubation
Procedure: as §1, §2, §3, §4

[7] = system: NCI/ADR cells; assay: Cytotoxicity, NCI/ADR cells that overexpress P-glycoprotein; details: for IC50: mean ± SEM for 3 experiments
From the text: These cell lines are resistant to anticancer drugs due to overexpression of the transport proteins P-glycoprotein or MRP1.

[8] = system: UACC-257; assay: NCI IVCLSP growth inhibition (SRB), UACC-257; type: cell-based, human; details: 48 h drug incubation
Procedure: as §1, §2, §3, §4

[9] = system: NCI 60 human tumor cell lines; assay: NCI IVCLSP growth inhibition, whole panel (text summaries); type: cell-based
Procedure: as §1
Compounds 1-9 were tested according to the NCI Developmental Therapeutics Program (DTP) In Vitro Cell Line Screening Project (IVCLSP). […] Methodology for testing under the IVCLSP is as follows: The human tumor cell lines of the cancer screening panel are grown in RPMI 1640 medium containing 5% fetal bovine serum and 2 mM L-glutamine. For a typical screening experiment, cells are inoculated into 96 well microtiter plates in 100 μL at plating densities ranging from 5,000 to 40,000 cells/well depending on the doubling time of individual cell lines. After cell inoculation, the microtiter plates are incubated at 37° C., 5% CO2, 95% air and 100% relative humidity for 24 h prior to addition of experimental drugs.
After 24 h, two plates of each cell line are fixed in situ with TCA, to represent a measurement of the cell population for each cell line at the time of drug addition (Tz). Experimental drugs are solubilized in dimethyl sulfoxide at 400-fold the desired final maximum test concentration and stored frozen prior to use. At the time of drug addition, an aliquot of frozen concentrate is thawed and diluted to twice the desired final maximum test concentration with complete medium containing 50 μg/ml gentamicin. Additional four, 10-fold or ½ log serial dilutions are made to provide a total of five drug concentrations plus control. Aliquots of 100 μl of these different drug dilutions are added to the appropriate microtiter wells already containing 100 μl of medium, resulting in the required final drug concentrations.
Following drug addition, the plates are incubated for an additional 48 h at 37° C., 5% CO2, 95% air, and 100% relative humidity. For adherent cells, the assay is terminated by the addition of cold TCA. Cells are fixed in situ by the gentle addition of 50 μl of cold 50% (w/v) TCA (final concentration, 10% TCA) and incubated for 60 minutes at 4° C. The supernatant is discarded, and the plates are washed five times with tap water and air dried. Sulforhodamine B (SRB) solution (100 μl) at 0.4% (w/v) in 1% acetic acid is added to each well, and plates are incubated for 10 minutes at room temperature. After staining, unbound dye is removed by washing five times with 1% acetic acid and the plates are air dried. Bound stain is subsequently solubilized with 10 mM trizma base, and the absorbance is read on an automated plate reader at a wavelength of 515 nm. For suspension cells, the methodology is the same except that the assay is terminated by fixing settled cells at the bottom of the wells by gently adding 50 μl of 80% TCA (final concentration, 16% TCA). Using the seven absorbance measurements [time zero, (Tz), control growth, (C), and test growth in the presence of drug at the five concentration levels (Ti)], the percentage growth is calculated at each of the drug concentrations levels. Percentage growth inhibition is calculated as: [(Ti−Tz)/(C−Tz)]×100 for concentrations for which Ti>/=Tz [(Ti−Tz)/Tz]×100 for concentrations for which Ti<Tz.
Three dose response parameters are calculated for each experimental agent. […] The drug concentration resulting in total growth inhibition (TGI) is calculated from Ti=Tz. […]

[10] = system: A-10 rat smooth muscle cells; assay: Microtubule structure, indirect immunofluorescence, A-10 cells; type: cell-based; details: 24 hours; 625 nM TAXOL, 167 nM vinblastine, 900 nM Compound 1
Procedure: Because of the morphological effects of Compound 1 on cultured cells and the NCI COMPARE analysis results described above, the effects of vinblastine, TAXOL (paclitaxel), and Compound 1 on microtubule structure were examined. For these studies, A-10 rat smooth muscle cells were used since they grow as flat monolayers that are amenable to imaging. The A-10 cells were treated for 24 hours with EtOH (control), 625 nM TAXOL (paclitaxel), 167 nM vinblastine, and 900 nM of Compound 1. Microtubules were then visualized by indirect immunofluoresence staining with B-tubulin antibodies. FIGS. 2a-d present representative fields for the control, TAXOL (paclitaxel), vinblastine, and Compound 1 (“149”), respectively. None of these compounds affected the morphology of stress fibers composed of microfilaments.

[11] = system: WAF1; assay: Western blot, WAF1 expression in MCF-7 cells; type: cell-based, human; details: 24 hours, various concentrations
Procedure: To further characterize the cell cycle effects of Compound 1 on human tumor cells, MCF-7 cells were treated for 24 hours with various concentrations of Compound 1, vinblastine, or TAXOL (paclitaxel). Cells were then harvested, lysed, and analyzed for levels of expression of p53 and WAF1 by Western Blot analyses. […] Compound 1 is identified as “149” in these figures. […] None of these treatments affected the expression of bcl-2 or P-tubulin in the MCF-7 cells.

[12] = system: HCC-2998; assay: NCI IVCLSP growth inhibition (SRB), HCC-2998; type: cell-based, human; details: 48 h drug incubation
Procedure: as §1, §2, §3, §4

[13] = system: RPM1-8226; assay: NCI IVCLSP growth inhibition (SRB), RPM1-8226; type: cell-based, human; details: 48 h drug incubation
Procedure: as §1, §2, §3, §4

Question: Which results are given for `COc1cc(CCc2cn(Cc3ccccc3)c3nc(N)nc(C)c23)cc(OC)c1OC` [Compound 1]?
Answer: GI50 [1]: 64.7 nM; GI50 [2]: 61.1 nM; increase of the percentage of cells in the G2/M phases ([3]; HL-60): approximately 2 fold; cell cycle distribution, G2/M ([3]; percentage of HL-60 cells): 9.7 ± 0.4; cell cycle distribution, G9/G1 ([3]; percentage of HL-60 cells): 80.0 ± 2.4; cell cycle distribution, S ([3]; percentage of HL-60 cells): 10.3 ± 2.0; GI50 [4]: 39.9 nM; IC50 [5]: 280 ± 100 nM; GI50 [6]: 31.4 nM; Resistance (NCI/ADR relative to MCF-7) ([7]; P-glycoprotein): 1.3; IC50 ([7]; read-out: Cytotoxicity IC50, NCI/ADR): 250 ± 120 nM; IC50 ([7]; read-out: drug sensitivity (IC50), NCI/ADR, Table 4, P-glycoprotein overexpressing): 350 ± 40 nM; GI50 [8]: 80.2 nM; GI50 values, level across the tumor cell lines (in words) ([9]; NCI 60 tumor panel): nanomolar to submicromolar levels; also recorded: single or two digit nanomolar levels against 16 tumor cell lines; also recorded: submicromolar levels against 40 tumor cell lines; also recorded: micromolar levels against 3 tumor cell lines; average GI50 ([9]; requirement for a microtubule-targeting agent, satisfied): one μM or less; effect on microtubule structure (in words) [10]: caused dose-dependent losses of microtubules; level of expression of WAF1 (in words) [11]: induced the expression; GI50 [12]: 317 nM; GI50 [13]: 439 nM
